Data from patent US9074019B2, “Methods, systems, and compositions for calpain inhibition” (HENRY FORD HEALTH SYSTEMS, priority 2008, dated 2015).
“And” between values parts separate entries of the source, which are not always exact repeats. Equal values may be shown once. “Also recorded” adds a separate entry of the source. Square brackets hold non-standard residues; d marks the D form. Ends that are not written are not given here. βAla = NCCC(=O)O

Tests used:
[1] = tested on: endothelial nitric oxide synthase (eNOS); assay: eNOS phosphorylation in brain after MCAO (Western blotting); assay type: in vivo, male Wistar rats
Description: (§1) Two-hour middle cerebral artery occlusion (MCAO) was used to induce ischemic stroke in Male Wistar rats. SEQ ID NO: 5 was given intravenously to rats immediately after reperfusion following 2 h of MCAO, while control animals had infusion of vehicle solution (n=6-9). Animals to be studied for neurological score and infarct volume survived 7 days, and neurological testing (mNSS and corner turn) were performed at 1, 4, and 7 days after MCAO. In another set of experiments, the animals were sacrificed at 48 h, and histology was performed for BBB integrity (albumin and fibrin leakage from the cerebral microvasculature into brain parenchyma). Phosphorylation of endothelial nitric oxide synthase (eNOS) was analyzed by Western blotting with specific antibodies raised against synthetic phosphorylated peptides representing known eNOS phosphorylation sites.
C: Graphical representation of the ratio of upper:lower phospho-eNOS protein band intensities (n=6 rats/experimental group).

[2] = tested on: focal cerebral ischemia (2 hour MCAO); assay: Neurological score after 2 hour MCAO in rats; assay type: in vivo, male Wistar rats; settings: for Neurological Score 0 Day: score 0-3 (3 most severe), day 0; for Neurological Score 1 Day: day 1
Description: (§2) Based on our studies, we selected and further tested SEQ ID NO: 5 for its cerebroprotective capacity after 2 hour middle cerebral artery (“MCAO”) ischemia in the Two hour MCAO by the suture method was induced in 21 male Wistar rats. […] Animals survived 7 days and neurological testing (score 0-3, 3 being the most severe) was performed. After sacrifice the brain samples were formalin fixed and infarct volumes were calculated using standard computerized image analysis. Independent t-test was used for statistical analysis.
(§3) Following an institutionally approved animal care protocol, male Wistar rats (270-290 g) were obtained from Charles River Breeding Co. (Wilmington, Mass., USA). Two-hour middle cerebral artery occlusion (MCAO) by the intravascular suture method, drug infusion, measurement of infarct volume and neurological deficits were performed as detailed previously.
(§4) SEQ ID NO: 5 (50 μM solution, i.v. infusion at 15 μl/min for 4 h; 3 mg/kg), SEQ ID NO: 13 or vehicle (1% DMSO in saline) was administered to rats […] (n=6-9) immediately after reperfusion following 2 h of MCAO. Sham-operated animals had surgery but no MCA occlusion. Animals to be studied for neurological score and infarct volume survived 7 days.
Neurological scores have been previously defined as follows: no observable deficit=0, forelimb flexion=1, decreased resistance to lateral push with forelimb flexion=2, same behavior as 2 plus circling=3. […] However, the difference in performance between the SEQ ID NO: 5-treated animals and the vehicle controls (1.00±0.17 vs. 1.78±0.22, *P<0.05, n=9 per group; independent t-test) and the SEQ ID NO: 13-treated group (1.00±0.17 vs. 1.44±0.18, #P<0.05, n=9 per group; independent t-test) was statistically significant at day 7 post-injury.
We assessed functional outcome as an endpoint of our evaluation by the method of Bederson et al. Treatment with SEQ ID NO: 5 immediately after 2-h MCAO reduced neurological deficits by 24% and 44% on day 4 and day 7, respectively, compared to vehicle-treated stroke controls. Infarct volume was a secondary outcome and was measured at day 7 after stroke. The extent of cerebral infarction was reduced by 35% in the SEQ ID NO: 5-treated animals compared to vehicle-treated animals Due to the predictable location of areas of infarction and consistent production of neurological deficits in the MCAO model used in this study, the effects of SEQ ID NO: 5 on neurological outcome and size of infarction produced by focal cerebral ischemia could be reliably studied. It must be noted, however, that, infarction volumes could correlate poorly with functional outcome because small lesions in cortical locations can produce major functional deficits. Conversely, large lesions in relatively silent areas cause little detectable function loss. Reduction of neurological deficits after stroke has been attributed to synaptic and functional reorganization in the cerebral cortex and in subcortical structures after ischemic injuries.
as §1

[3] = tested on: focal cerebral ischemia (2 hour MCAO); assay: Infarct volume after 2 hour middle cerebral artery occlusion (MCAO) in rats; assay type: in vivo, male Wistar rats; settings: for infarct volume: 3 mg/kg i.v. 4 h, mean±SEM, no unit printed in this block, in %; for Lesion Volume % of Hemisphere (percent hemispheric infarct volume): 3 mg/kg i.v. infusion for 4 h after reperfusion, mean ± SE, n=9, 3 mg/kg
From the text: (§5) We developed our peptidomimetic inhibitors of calpain by rational and systematic chemical modifications of the amide bond and/or side chain functionalities of permutations of SEQ ID NO: 2, followed by calpain-inhibitory kinetic measurements of the designed molecules in vitro as well as an assessment of their ability to improve neurological recovery in vivo after focal cerebral ischemic in rats. The structural modifications performed to create the peptidomimetics included, without limitation, amino acid replacements by chemical mutagenesis, amide bond mimics, methylene group insertion between the α-carbon and the carbonyl functionalities of individual amino acids, replacement of natural amino acid side chains with non-natural moieties, and amino acid side chain cyclizations. Calpain-inhibitory activity of the peptidomimetics was measured by steady-state and stopped-flow enzyme inhibition kinetic studies using purified calpain and natural protein or synthetic fluorogenic peptide substrates. The effect of the peptidomimetics on cerebral infarction, cerebral endothelial function and neurological functional recovery after ischemic stroke was assessed using a rat model of 2 hour middle cerebral artery (“MCAO”) ischemia.
as §2, §3, §4
From the H&E sections, the ischemic core area with diffuse pallor of the eosinophilic background and the border area with vacuolation or sponginess and neutrophils can be identified under the microscope. […] The subcortical region in the core slices of C and D is also affected (white arrows). The ischemic damage (i.e. cell death, loss of tissue, or encephalomalacia) is less in the SEQ ID NO: 5-treated animals compared to the vehicle-treated controls. By comparison, the contralateral side appeared undamaged by both gross inspection and in histological sections.

purified calpain = assay: Calpain-inhibitory activity (steady-state and stopped-flow enzyme inhibition kinetics); assay type: biochemical; settings: in words
From the text: as §5, §4

BBB integrity = BBB integrity (albumin and fibrin leakage into brain parenchyma) after MCAO; assay type: in vivo, male Wistar rats
Description: as §1, with “sites. […] Shown are representative immunoblots of RSA levels in the ipsilateral cortical (A) and subcortical (B) regions of sham-operated, ischemic vehicle-treated, and ischemic. C, Densitometric analysis of RSA levels in ipsilateral cortex and subcortex (*p<0.05 vs vehicle; n=6) at 24 h following MCAO. […] Representative fluorescent micrographs of fibrin deposition outside the cerebral microvasculature of untreated (MCAO, panel A) and treated (+SEQ ID NO: 5, panel B) rats subjected to 2 hour MCA occlusion with reperfusion and 48 hour survival are shown. A schematic representation of a coronal brain section showing eight fields selected from the ischemic boundary zone (IBZ) for quantitative measurements of immunochemical staining for fibrin in the cortex and striatum is shown (panel C).” for “sites.”

[4] = tested on: calpain-mediated cleavage of αII-spectrin; assay: Western blot of αII-spectrin breakdown products (SBDPs) in rat brain following MCAO; assay type: in vivo, male Wistar rats
Description: Following MCAO and drug infusion, the animals were sacrificed after 24 or 48 h of survival. At that time, the brains were extracted and separated into right and left, cortical and subcortical regions, snap-frozen in liquid nitrogen and stored at −80° C. until used. For Western blot analysis, the brain samples were pulverized to a fine powder with a small mortar and pestle set over dry ice. The pulverized brain tissue powder was homogenized in a solution of 0.25 M sucrose, […] 2-(N-morpholino)-ethanesulfonic acid, 1 mM EDTA, pH 6.5, containing 0.025 mM E-64, 2.0 mM AEBSF, 0.5 mM PMSF, 0.02 mM leupeptin, 0.05 mM pepstatin, and 0.001 mM aprotinin (homogenization buffer) at 4° C. in a Potter-Elvehjem homogenizer. T homogenates were then centrifuged at 4° C. for 20 min at 16,000 g. Aliquots of the supernatant were stored at −80° C. until used for experiments. Protein concentrations were determined using micro BCA Protein Assay kit (Pierce, Rockford, Ill.). SDS-PAGE was carried out according to Laemmli and immunoblots were performed according to the technique of Towbin et al. Mouse monoclonal ant II-spectrin antibody (MAB 1622, 1:1,000) and horse radish peroxidase (HRP)-conjugated goat anti-mouse IgG (AP124P, 1:10,000) were from Chemicon (Temecula, Calif.). Labeled proteins were detected with the enhanced chemiluminescence method according to the manufacturer's instructions (GE Healthcare Biosciences, Piscataway, N.J., USA). Bands were quantified by densitometry using Gel-Doc 2000 (Bio-Rad, Richmond, Va.) and the free open source software ImageJ.
Pathologic activity of calpain and in vivo efficacy of SEQ ID NO: 5 were assessed by Western blot analysis of all-spectrin breakdown products (SBDPs) generated in the rat brain following MCAO. […] (E) Densitometric analysis of SBDP150/SBDP145 levels in ipsilateral cortex and subcortex at 24 and 48 h following MCAO.

[5] = rat 2-h MCAO, 3 mg/kg i.v. 4 h, mean ± SE, n=9
[6] = rat 2-h MCAO, 3 mg/kg i.v. 4 h, score 0-3, mean ± SE, n=9
[7] = rat 2-h MCAO, 3 mg/kg i.v. 4 h, score 0-3, mean ± SE, n=9, day 4

DPMSSTYIEELGKREVTIPPKYVALLPAVLLALLAP [SEQ ID NO: 5]
eNOS phosphorylation state (eNOS-Ser633, ratio of upper:lower band) ([1]; FIG. 7, n=6 rats/group): modulates eNOS phosphorylation state
eNOS threonine-495 phosphorylation in the brain after stroke ([1]; post-injury treatment, FIG. 8): significantly reduced; also recorded: induces eNOS-Thr495 dephosphorylation
improving neurological recovery ([2]; 50 micromolar solution via femoral vein for 4 hours after reperfusion, total dose 3 mg/kg): effective
Neurological Score 0 Day [2, 5]: 2.89 ± 0.11
Neurological Score 1 Day [2, 6]: 2.33 ± 0.24
Neurological Score 4 Days [2, 7]: 1.44 ± 0.18
reduction of neurological deficits compared to vehicle-treated stroke controls, day 4 ([2]; rat 2-h MCAO, treatment immediately after MCAO, day 4): 24%
reduction of neurological deficits compared to vehicle-treated stroke controls, day 7 ([2]; rat 2-h MCAO, treatment immediately after MCAO, day 7): 44%
toxicity to cultured cells (cultured cells): non-toxic to cultured cells
ischemic damage (cell death, loss of tissue, encephalomalacia) in H&E sections ([3]; FIG. 3, compared to vehicle-treated controls): less
infarct volume ([3]; rat 2-h MCAO, day 7): 24.9±3.8
Lesion Volume % of Hemisphere (percent hemispheric infarct volume) ([3]; rat 2-h MCAO, day 7): 24.9±3.8 % of Hemisphere and 24.9 ± 3.8*^,# % of Hemisphere
reduction of infarct volume (extent of cerebral infarction) compared to vehicle-treated animals ([3]; rat 2-h MCAO, day 7): 35%
calpain inhibitory activity (purified calpain): potent
specificity for calpain (purified calpain): specific inhibitor of calpain
BBB integrity as assessed by albumin and fibrin extravasation (BBB integrity; 48 h, compared to controls): significant improvement
rat serum albumin (RSA) leakage into the ischemic brain parenchyma (BBB integrity; FIG. 5, ipsilateral cortex and subcortex, 24 h following MCAO, p<0.05 vs vehicle, n=6): reduces rat serum albumin (RSA) leakage
fibrin deposition outside the cerebral microvasculature (BBB integrity; FIG. 6, 2 hour MCA occlusion with reperfusion and 48 hour survival): decreases fibrin deposition outside the cerebral microvasculature
calpain-mediated cleavage of αII-spectrin in rat brain following MCAO ([4]; FIG. 4, 24 h and 48 h): blocks calpain-mediated cleavage of αII-spectrin
SBDP145 levels at 48 h post-injury ([4]; cortical and subcortical regions, 48 h after MCAO, P<0.05 vs. vehicle, n=6): significantly reduced SBDP145 levels
SBDP150 and SBDP145 formation at 24 h post-injury ([4]; ipsilateral cortex and subcortex, 24 h after MCAO): blocked SBDP150 and SBDP145 formation to basal levels; also recorded: completely blocked SBDP145 accumulation

DPMSSTYIEE[βAla]GKREVTIPPKYVALLPAVLLALLAP [SEQ ID NO: 13, reference compound]
Neurological Score 0 Day [2, 5]: 2.89 ± 0.11
Neurological Score 1 Day [2, 6]: 2.11 ± 0.20
Neurological Score 4 Days [2, 7]: 1.56 ± 0.18
Neurological Score 7 Days ([2]; rat 2-h MCAO, 3 mg/kg i.v. 4 h, score 0-3, mean ± SE, n=9, day 7, 3 mg/kg): 1.44±0.18
infarct volume ([3]; rat 2-h MCAO, day 7): 33.8±4.2
Lesion Volume % of Hemisphere (percent hemispheric infarct volume) ([3]; rat 2-h MCAO, day 7): 33.8±4.2 % of Hemisphere
calpain inhibitory activity (purified calpain): less active
calpain inhibitory activity (purified calpain; listed as SEQ ID NO: 5-βAla): inactive
